Assay results: article PMC10291556 (Journal of Medicinal Chemistry, 2023)

Key:
HeLa cells = test: Cellular accumulation of platinum (ICP-MS); assay type: cell-based, human; settings: for cellular uptake 0.1 μM/24 h: 0.1 μM complex; for cellular uptake 1 μM/6 h: 1 μM complex; for cellular uptake 10 μM/6 h: 10 μM complex; for cellular uptake relative to Pt(IV) complex 2: Table 3
Description: Briefly, 3 × 10^6 cells were seeded in 100 mm culture dishes and grown overnight. The cells were exposed to the tested complexes at indicated concentrations for indicated periods. […] The pellets were digested using the microwave acid (HCl) digestion system (CEM Mars). The platinum quantity taken up by the cells was determined by inductively coupled plasma mass spectrometry (ICP–MS). All experiments were performed in triplicate.

[1] = NMR reduction studies with GSH or ascorbic acid; assay type: physicochemical; settings: up to 10 equiv of reducing agent, 48 h, 37 °C, PBS/D2O, 1H NMR
Description: Thus, all compounds were >95% pure by NMR and HPLC analyses. NMR reduction studies were also undertaken where excess equivalents of reducing agents GSH or ascorbic acid were added to the sample before undertaking multiple NMR measurements over a 48 h period at 37 °C. These reducing agents were chosen to mimic the reducing capacity of the […] environment of the blood and tissue. […] However, once inside the cell, reactions with intracellular components might be induced, rendering the prodrug biodegradable. […] Therefore, the complex is unlikely to be reduced in the bloodstream. Monitoring the Pt(IV) peak, falling as the Pt(II) peak rises, would be ideal for further proof of the stability of these complexes, but the Pt(IV) resonance falls outside the detectable range of our instrument.
One equivalent of the complex was dissolved in 500 μL of PBS using D2O for a ^1H NMR experiment performed on a Bruker AVANCE 400 MHz NMR spectrometer, with 50 dummy scans (approx. 5 min) to allow the sample to reach 37 °C before 128 scans were taken. The sample was removed, and the reducing agent was quickly added. Then the NMR measurement was taken again (50 dummy scans followed by 128 scans). The NMR was subsequently set up to measure one 128-scan experiment after another for 4 h, at which point the sample was removed, stored, and scanned again after 24 and 48 h. […]

| Compound | cellular uptake 0.1 μM/24 h (HeLa cells) [ng Pt/10^6 cells] | cellular uptake 1 μM/6 h (HeLa cells) [ng Pt/10^6 cells] | cellular uptake 10 μM/6 h (HeLa cells) [ng Pt/10^6 cells] | cellular uptake relative to Pt(IV) complex 2 (HeLa cells) | stability towards reduction by GSH or ascorbic acid [1] |
| --- | --- | --- | --- | --- | --- |
| Cc1c(C)c2c3c4c1=CC=C[N]4[Pt][N]3C=CC=2.NCCNC(=O)Cc1ccccc1Nc1c(Cl)cccc1Cl.NCCNC(=O)Cc1ccccc1Nc1c(Cl)cccc1Cl.N[C@H]1CCCC[C@@H]1N [complex 4, Pt^IV56MeSS(DCF)2] | 3.9 ± 0.3 | 11 ± 2 | 82 ± 7 | 1.7–1.8 fold | the compound had not been reduced |
| Cc1c(C)c2c3c4c1=CC=C[N]4[Pt]([Cl])[N]3C=CC=2.NCCNC(=O)Cc1ccccc1Nc1c(Cl)cccc1Cl.N[C@H]1CCCC[C@@H]1N [complex 3, Pt(IV)56MESSenDCFCl] | 3.6 ± 0.2 | 9.6 ± 0.8 | 61 ± 8 | 1.3–1.6 fold | – |
